From PMC2933744 (Biochemistry, 2008)

How the values were obtained:
hPRMT1 [1] = target: T1, hPRMT1 (Homo sapiens, UniProt Q99873); assay: Dead-end analogue inhibition, AcH4-21 and SAM as substrates; type: biochemical; conditions: pH 8.0, 37°C
hPRMT1 [2] = target: T1, hPRMT1; assay: Initial velocity studies; type: biochemical; conditions: for K(SAM) (Michaelis constant): pH 8.0, 37°C, fit to eq 2

T1 sequence (Q99873 whole entry): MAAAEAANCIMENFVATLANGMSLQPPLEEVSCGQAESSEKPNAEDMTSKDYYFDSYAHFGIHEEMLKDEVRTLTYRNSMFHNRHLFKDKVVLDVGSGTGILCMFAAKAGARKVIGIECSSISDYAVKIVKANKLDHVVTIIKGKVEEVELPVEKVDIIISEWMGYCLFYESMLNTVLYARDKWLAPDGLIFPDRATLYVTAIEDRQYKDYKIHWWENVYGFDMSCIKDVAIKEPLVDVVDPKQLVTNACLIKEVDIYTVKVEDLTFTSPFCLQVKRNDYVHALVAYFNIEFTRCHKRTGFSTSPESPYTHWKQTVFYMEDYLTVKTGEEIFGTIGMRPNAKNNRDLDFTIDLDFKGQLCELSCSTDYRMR

## Nc1ncnc2c1ncn2[C@@H]1O[C@H](C[C@@H](N)CC[C@H](N)C(=O)O)[C@@H](O)[C@H]1O [Sinefungin]
hPRMT1 [1]; AcH4-21 varied, fixed [SAM] = 15 µM, mixed fit eq 5
  Kii (intercept Ki): 470 ± 190 nM
hPRMT1 [1]; SAM varied, fixed AcH4-21 10 µM, 212 nM hPRMT1, at least duplicate
  Inhibition pattern: Competitive

## C[S+](CC[C@H](N)C(=O)[O-])C[C@H]1O[C@@H](n2cnc3c(N)ncnc32)[C@H](O)[C@@H]1O (stereo partly drawn) [SAM, S-adenosyl-L-methionine]
hPRMT1 [2]; AcH4-21 varied, fixed SAM 1, 2.5, 7.5 µM
  K(SAM) (Michaelis constant): 8.35 ± 2.11
hPRMT1 [2]; SAM and peptide varied at various fixed concentrations of the other substrate
  Initial velocity pattern (double reciprocal plots): intersect in the second quadrant
hPRMT1 [2]; SAM varied, fixed AcH4-21 2.5, 5, 25 µM
  K(SAM) (Michaelis constant): 21.1 ± 4.0
